The target in one assay is ER (Homo sapiens (Human), UniProt P03372). The assay can be described thus: In-cell western blot analysis of relative ER percentage (Compounds B1-B278). It is filed as cell-based. The settings on record: ER degradation, 16 hours, read-out: ICW DC50. As to the method:
In-cell western blot analysis. Cells are seeded in multi-well plates (e.g., at 40,000 or 10,000 cells/well). Diluted compounds at certain concentration are added (final 0.5% DMSO) and cells are incubated for […] (e.g., 16 hours). Formaldehyde (e.g., PBS:FA=9:1) is added and followed by washing with PBS. The cells are blocked with Licor blocking buffer (Li-Cor). The relative ER percentage in treated cells are obtained by comparing the values of treated wells to those in untreated and DMSO-treated wells as 100%.
In-cell western blot analysis. a. seed cells in black-sided/clear bottom 96- or 384-well plates at 40,000 or 10,000 cells/well, overnight; b. add diluted compounds (final 0.5% DMSO), 16 hours. 16 h later, remove medium, add 100 μL or 25 μL of 3.7-4.0% formaldehyde (PBS:FA=9:1), RT 20 min, no shaking; c. wash with PBS, and permeabilized with 100 μL or 25 μL/well of 1×PBS+0.1% Triton X-100 10 minutes; d. block with 100 μL or 25 μL Licor blocking buffer (Li-Cor), RT 1 h, moderate shaking; d. Add 100 μL or 25 μL of anti-ER (cs-8644, 1:500-1,000)+GAPDH(Millipore MAB374, 1:1000) in Block+0.05% Tween 20. RT 2 h, gentle shaking. Negative control: cells plus secondary antibodies (no primary antibodies); e. wash×4 with PBS +0.05-0.1% Tween 20, gentel shaking; f. anti-rabbit-680 and anti-mouse-800 (both 1:1000 in LiCor block +0.05% Tween20, RT 1 h, gentle shaking, no light. LI-COR: 0.2% to reduce background; g. wash×4 with PBS+0.05% Tween 20, gental shaking; h. add 100 μL or 25 μL of PBS to each well and read on CLX plate reader. The relative ER percentage in treated cells were obtained by comparing the values of treated wells to those in untreated and DMSO-treated wells as 100%.

Assay [1] in a line: Cell growth assay (WST-8) (Compounds B1-B278). The class given is cell-based. The note with it: T47D cell line, WST-8, 4 days, read-out: Cell Growth Inhibition in T47D cell line IC50. As to the method:
Cell Growth Assay. The cells are seeded at certain concentration (e.g., at 1500/well) in multi-well plates overnight. Cells are subsequently treated with the compounds. A certain period of time (e.g., 4 days) after the compound treatment, 10% WST-8 reagent is added to the culture medium and incubate under certain condiction (e.g., in a CO2 incubator at 37° C. for 2.5 hours). The absorbance is measured on each sample using a microplate reader at certain wavelength (e.g., 450 nm). The relative absorbance is calculated against the vehicle control from three individually repeats.
Cell Growth Assay. The cells were seeded at 1500/well in 96 well plates overnight. One day after the seeding, they were treated with indicated doses of compounds respectively. 4 days after the compound treatment, 10% WST-8 reagent was added to the culture medium and incubate in a CO2 incubator at 37° C. for 2.5 hours. Before reading, the plate was mixed gently on an orbital shaker for one minute to ensure homogeneous distribution of color. The absorbance was measured of each sample using a microplate reader at a wavelength of 450 nm. The relative absorbance was calculated against the vehicle control from three individually repeats.

The structures appear in SMILES notation. Like-named read-outs stand apart in the source and are kept apart here. Where only a bound is given, the exact number is not on record here.

For orientation: DC50 means the concentration at which degradation of the target reaches its halfway point. What is called IC50 is the concentration at which inhibition is half-maximal.

Sequence of ER (P03372 whole entry): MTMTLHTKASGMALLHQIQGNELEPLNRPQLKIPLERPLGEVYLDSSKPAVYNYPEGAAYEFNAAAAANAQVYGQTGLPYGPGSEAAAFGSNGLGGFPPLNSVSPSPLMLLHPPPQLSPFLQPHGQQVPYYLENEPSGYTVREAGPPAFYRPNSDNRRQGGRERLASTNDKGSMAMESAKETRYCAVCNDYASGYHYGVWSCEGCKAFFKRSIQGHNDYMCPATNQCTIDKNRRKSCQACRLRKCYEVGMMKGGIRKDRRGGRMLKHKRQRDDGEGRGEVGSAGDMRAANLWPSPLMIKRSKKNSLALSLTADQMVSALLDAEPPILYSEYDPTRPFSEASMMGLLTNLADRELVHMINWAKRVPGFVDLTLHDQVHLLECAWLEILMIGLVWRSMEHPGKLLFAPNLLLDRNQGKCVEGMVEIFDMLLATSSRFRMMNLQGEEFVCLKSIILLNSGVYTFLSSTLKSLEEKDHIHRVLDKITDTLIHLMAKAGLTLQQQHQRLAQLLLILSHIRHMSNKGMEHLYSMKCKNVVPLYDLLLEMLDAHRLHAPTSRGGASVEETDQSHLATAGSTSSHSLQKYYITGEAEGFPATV

As to `C[C@@H]1Cc2c([nH]c3ccccc23)[C@@H](c2c(F)cc(N3CCC(CN4CCN5c6ccc7c(c6OC[C@H]5C4)CN(C4CCC(=O)NC4=O)C7=O)CC3)cc2F)N1CC(F)F` (mixture of isomers) [Compound B253, 3-((RS)-7-((1-(4-((1R,3R)-2-(2,2-difluoroethyl)-3-methyl-2,3,4,9-tetrahydro-1H-pyrido[3,4-b]indol-1-yl)-3,5-difluorophenyl)piperidin-4-yl)methyl)-1-oxo-1,3,5,5a,6,7,8,9-octahydro-2H-pyrazino[1′,2′:4,5][1,4]oxazino[2,3-e]isoindol-2-yl)piperidine-2,6-dione], on ER, the half-maximal degradation concentration (DC50) was in the range of 10 to 100 nM. In addition, the concentration for half-maximal inhibition (IC50) in assay [1] (96 h) is less than 1 nM.
For `C[C@@H]1Cc2c([nH]c3ccccc23)[C@@H](c2cnc(N3CCC(CN4CCN5c6ccc7c(c6OC[C@H]5C4)CN(C4CCC(=O)NC4=O)C7=O)CC3)nc2)N1CC(F)F` (mixture of isomers) [Compound B254, 3-((RS)-7-((1-(5-((1R,3R)-2-(2,2-difluoroethyl)-3-methyl-2,3,4,9-tetrahydro-1H-pyrido[3,4-b]indol-1-yl)pyrimidin-2-yl)piperidin-4-yl)methyl)-1-oxo-1,3,5,5a,6,7,8,9-octahydro-2H-pyrazino[1′,2′:4,5][1,4]oxazino[2,3-e]isoindol-2-yl)piperidine-2,6-dione], on ER, the 50% degradation concentration (DC50) fell in the range of 10 to 100 nM. Besides, the IC50 in assay [1] (96 h) was less than 1 nM.
In the case of `C[C@@H]1Cc2c([nH]c3ccccc23)[C@@H](c2cnc(N3CCC(CN4CCN5c6ccc7c(c6OC[C@H]5C4)CN(C4CCC(=O)NC4=O)C7=O)CC3)nc2)N1CC(F)F` (mixture of isomers) [Compound B255, 3-((RS)-7-((1-(5-((1R,3R)-2-(2,2-difluoroethyl)-3-methyl-2,3,4,9-tetrahydro-1H-pyrido[3,4-b]indol-1-yl)pyrimidin-2-yl)piperidin-4-yl)methyl)-1-oxo-1,3,5,5a,6,7,8,9-octahydro-2H-pyrazino[1′,2′:4,5][1,4]oxazino[2,3-e]isoindol-2-yl)piperidine-2,6-dione], the DC50 on ER is more than 100 nM. In addition, the IC50 in assay [1] was less than 1 nM.
Turning to `C[C@@H]1Cc2c([nH]c3ccccc23)[C@@H](c2cnc(N3CCC(CN4CCN5c6ccc7c(c6OC[C@H]5C4)CN(C4CCC(=O)NC4=O)C7=O)CC3)nc2)N1CC(C)(C)F` (mixture of isomers) [Compound B256, 3-((RS)-7-((1-(5-((1R,3R)-2-(2-fluoro-2-methylpropyl)-3-methyl-2,3,4,9-tetrahydro-1H-pyrido[3,4-b]indol-1-yl)pyrimidin-2-yl)piperidin-4-yl)methyl)-1-oxo-1,3,5,5a,6,7,8,9-octahydro-2H-pyrazino[1′,2′:4,5][1,4]oxazino[2,3-e]isoindol-2-yl)piperidine-2,6-dione], on ER, the DC50 is more than 100 nM. Also, the half-inhibitory concentration (IC50) in assay [1] (96 h) was less than 1 nM.
With `C[C@@H]1Cc2c([nH]c3ccccc23)[C@@H](c2c(F)cc(N3CCC(CN4CCN5c6ccc7c(c6OC[C@H]5C4)CN(C4CCC(=O)NC4=O)C7=O)CC3)cc2F)N1CC(C)(C)F` (mixture of isomers) [Compound B257, 3-((RS)-7-((1-(3,5-difluoro-4-((1R,3R)-2-(2-fluoro-2-methylpropyl)-3-methyl-2,3,4,9-tetrahydro-1H-pyrido[3,4-b]indol-1-yl)phenyl)piperidin-4-yl)methyl)-1-oxo-1,3,5,5a,6,7,8,9-octahydro-2H-pyrazino[1′,2′:4,5][1,4]oxazino[2,3-e]isoindol-2-yl)piperidine-2,6-dione], the DC50 at ER is 10 to 100 nM. Moreover, the IC50 in assay [1] (96 h) is less than 1 nM.
Consider `C[C@@H]1Cc2c([nH]c3ccccc23)[C@@H](c2c(F)cc(N3CCC(CN4CCN5c6ccc7c(c6OC[C@H]5C4)CN(C4CCC(=O)NC4=O)C7=O)CC3)cc2F)N1CC(C)(C)F` (mixture of isomers) [Compound B259, 3-((RS)-7-((1-(3,5-difluoro-4-((1R,3R)-2-(2-fluoro-2-methylpropyl)-3-methyl-2,3,4,9-tetrahydro-1H-pyrido[3,4-b]indol-1-yl)phenyl)piperidin-4-yl)methyl)-1-oxo-1,3,5,5a,6,7,8,9-octahydro-2H-pyrazino[1′,2′:4,5][1,4]oxazino[2,3-e]isoindol-2-yl)piperidine-2,6-dione], for which, on ER, the DC50 was more than 100 nM. Further, the IC50 in assay [1] is less than 1 nM.
With `C[C@@H]1Cc2c([nH]c3ccccc23)[C@@H](c2cnc(N3CCC(OCCN4CCN5c6cc7c(cc6OC[C@@H]5C4)C(=O)N([C@H]4CCC(=O)NC4=O)C7)CC3)nc2)N1CC(F)F` [Compound 1B24, (S)-3-((S)-3-(2-((1-(5-((1R,3R)-2-(2,2-difluoroethyl)-3-methyl-2,3,4,9-tetrahydro-1H-pyrido[3,4-b]indol-1-yl)pyrimidin-2-yl)piperidin-4-yl)oxy)ethyl)-8-oxo-1,2,3,4,4a,5,8,10-octahydro-9H-pyrazino[1,2′:4,5][1,4]oxazino[2,3-f]isoindol-9-yl)piperidine-2,6-dione], the half-maximal degradation concentration (DC50) at ER lay within 10 to 100 nM. The IC50 in assay [1] (96 h) was in the range of 1 to 10 nM.
For the molecule `C[C@@H]1Cc2c([nH]c3ccccc23)[C@@H](c2c(F)cc(-c3ncc(C(=O)N4CCN5c6cc7c(cc6OC[C@@H]5C4)C(=O)N([C@H]4CCC(=O)NC4=O)C7)cn3)cc2F)N1CC(F)F` [Compound B117, (S)-3-((S)-3-(2-(4-((1R,3R)-2-(2,2-difluoroethyl)-3-methyl-2,3,4,9-tetrahydro-1H-pyrido[3,4-b]indol-1-yl)-3,5-difluorophenyl)pyrimidine-5-carbonyl)-8-oxo-1,2,3,4,4a,5,8,10-octahydro-9H-pyrazino[1′,2′:4,5][1,4]oxazino[2,3-f]isoindol-9-yl)piperidine-2,6-dione], on ER, the DC50 lay in the range of 10 to 100 nM. Also, in assay [1] (96 h), the IC50 fell in the range of 1 to 10 nM.
Consider `C[C@@H]1Cc2c([nH]c3ccccc23)[C@@H](c2c(F)cc(NC3CN(C(=O)CN4CCN5c6cc7c(cc6OC[C@@H]5C4)C(=O)N(C4CCC(=O)NC4=O)C7)C3)cc2F)N1CC(F)(F)CO` (stereo partly drawn) [Compound B118, 3-((S)-3-(2-(3-((4-((1R,3R)-2-(2,2-difluoro-3-hydroxypropyl)-3-methyl-2,3,4,9-tetrahydro-1H-pyrido[3,4-b]indol-1-yl)-3,5-difluorophenyl)amino)azetidin-1-yl)-2-oxoethyl)-8-oxo-1,2,3,4,4a,5,8,10-octahydro-9H-pyrazino[1′,2′:4,5][1,4]oxazino[2,3-f]isoindol-9-yl)piperidine-2,6-dione], for which the 50% degradation concentration (DC50) at ER lay within 10 to 100 nM. The half-maximal inhibitory concentration (IC50) in assay [1] (96 h) was in the range of 1 to 10 nM.
On the same counts, the results for `C[C@@H]1Cc2c([nH]c3ccccc23)[C@@H](c2c(F)cc(C3CCN(C(=O)CN4CCN5c6cc7c(cc6OC[C@@H]5C4)C(=O)N(C4CCC(=O)NC4=O)C7)CC3)cc2F)N1CC(F)F` (stereo partly drawn) [Compound B119, 3-((S)-3-(2-(4-(4-((1R,3R)-2-(2,2-difluoroethyl)-3-methyl-2,3,4,9-tetrahydro-1H-pyrido[3,4-b]indol-1-yl)-3,5-difluorophenyl)piperidin-1-yl)-2-oxoethyl)-8-oxo-1,2,3,4,4a,5,8,10-octahydro-9H-pyrazino[1′,2′:4,5][1,4]oxazino[2,3-f]isoindol-9-yl)piperidine-2,6-dione] are 10 to 100 nM and less than 1 nM.
On the same counts, the results for `C[C@@H]1Cc2c([nH]c3ccccc23)[C@@H](c2cnc(N3CC4(CCC(CN5CCN6c7cc8c(cc7OC[C@@H]6C5)C(=O)N(C5CCC(=O)NC5=O)C8)CC4)C3)nc2)N1CC(F)F` (stereo partly drawn) [Compound B120, 3-((S)-3-((2-(5-((1R,3R)-2-(2,2-difluoroethyl)-3-methyl-2,3,4,9-tetrahydro-1H-pyrido[3,4-b]indol-1-yl)pyrimidin-2-yl)-2-azaspiro[3.5]nonan-7-yl)methyl)-8-oxo-1,2,3,4,4a,5,8,10-octahydro-9H-pyrazino[1′,2′:4,5][1,4]oxazino[2,3-f]isoindol-9-yl)piperidine-2,6-dione] are 10 to 100 nM and 1 to 10 nM.

The values above are taken from patent US20260007681A1, “INDOLE DERIVATIVES AS ESTROGEN RECEPTOR DEGRADERS” (REGENTS OF THE UNIVERSITY OF MICHIGAN, priority 2022, published 2026).
